Source: publication PMC10406627 (The Journal of Biological Chemistry, 2023)

Target: T1, N4CMT79–324 (Adineta vaga, UniProt A0AAB0B2A1)
T1 sequence (A0AAB0B2A1 2-247): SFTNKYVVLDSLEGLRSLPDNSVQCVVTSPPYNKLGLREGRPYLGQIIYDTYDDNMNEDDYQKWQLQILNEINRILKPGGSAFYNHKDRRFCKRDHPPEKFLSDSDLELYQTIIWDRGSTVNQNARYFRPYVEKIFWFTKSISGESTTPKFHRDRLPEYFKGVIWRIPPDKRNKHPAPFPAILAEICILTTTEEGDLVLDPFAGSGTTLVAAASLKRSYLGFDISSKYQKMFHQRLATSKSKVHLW
Assay: X-ray crystal structure, […] A, space group C222_[…]
Conditions: SAM-binding site; 600 uM sinefungin preincubated, no DNA

For `Nc1ncnc2c1ncn2[C@@H]1O[C@H](C[C@@H](N)CC[C@H](N)C(=O)O)[C@@H](O)[C@H]1O` [sinefungin], which “X-ray crystal structure, 1.49 A, space group C222_1” value is on record?
Its value is “sinefungin binds in the SAM-binding site, and its adenosyl moiety is solvent-exposed on the surface”.
